The source of these data is patent US20240327393A1 (SIRONAX LTD., priority 2021, published 2024).

The test system of the experiment is HT-1080 (ATCC, CCL-121) cells. Description: HT-1080 cell viability assay with ferroptosis inducer RSL3 (Cell Titer-Glo). Particulars: Homo sapiens; HT-1080 cells treated with RSL3; 3-fold, 10-point dilution, 1.1 μM highest concentration; Table 2; read-out: EC50 (nM), ferroptosis inhibitory activity. It counts as cell-based. The method, boiled down: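 EC50 was derived by sigmoidal dose-response regression of CellTiter-Glo luminescence viability, expressed relative to untreated wells. Compounds were tested in a ten-point, threefold dilution series (highest 1.1 μM) in the presence of the ferroptosis inducer RSL3. HT-1080 cells had been seeded at 6000 per well and grown overnight first.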
On to `CCNc1nc2cc(Nc3ccc(N4CCC(C(F)(F)F)CC4)cc3)ccc2n1C` [Compound 401, N2-ethyl-1-methyl-N5-(4-(4-(trifluoromethyl)piperidin-1-yl)phenyl)-1H-benzo[d]imidazole-2,5-diamine], for which the half-maximal effective concentration (EC50) fell in the range of 0.1 to 100 nM.

For `CCN(CC)c1nc2ccc(Nc3ccc(N4CCC(C(F)(F)F)CC4)cc3)cc2n1C` [Compound 402, N2,N2-diethyl-1-methyl-N6-(4-(4-(trifluoromethyl)piperidin-1-yl)phenyl)-1H-benzo[d]imidazole-2,6-diamine], the EC50 lay within 0.1 to 100 nM. Regarding `Cn1cc(C(N)=O)c2ccc(Nc3ccc(N4CCC(C(F)(F)F)CC4)cc3)cc21` [Compound 403, 1-methyl-6-((4-(4-(trifluoromethyl)piperidin-1-yl)phenyl)amino)-1H-indole-3-carboxamide], the half-maximal effective concentration (EC50) lay in the range of 0.1 to 100 nM. With `Cn1c(=O)n(C)c2cc(Nc3ccc(C(F)(F)F)cc3)ccc21` [Compound 404, 1,3-dimethyl-5-((4-(trifluoromethyl)phenyl)amino)-1,3-dihydro-2H-benzo [d]imidazol-2-one], the EC50 was 0.1 to 100 nM. For the molecule `CN(C)CCn1c(=O)n(C)c2cc(Nc3ccc(C4CCC(C)(C)CC4)cc3)ccc21` [Compound 405, 1-(2-(dimethylamino)ethyl)-5-((4-(4,4-dimethylcyclohexyl)phenyl)amino)-3-methyl-1,3-dihydro-2H-benzo[d]imidazol-2-one], the half-maximal effective concentration (EC50) is 0.1 to 100 nM. On to `Cn1c(=O)oc2cc(Nc3ccc(C4CCC(C)(C)CC4)cc3)ccc21` [Compound 406, 6-((4-(4,4-dimethylcyclohexyl)phenyl)amino)-3-methylbenzo[d]oxazol-2(3H)-one], for which the EC50 was in the range of 0.1 to 100 nM.

Consider `Cn1c(=O)n(C)c2cc(Nc3ccc(C4CCC(C)(C)CC4)cc3)ccc21` [Compound 407, 5-((4-(4,4-dimethylcyclohexyl)phenyl)amino)-1,3-dimethyl-1,3-dihydro-2H-benzo[d]imidazol-2-one], for which the EC50 is 0.1 to 100 nM. `CC1(C)CCC(c2ccc(Oc3ccc4nc(N)sc4c3)cc2)CC1` [Compound 408, 6-(4-(4,4-dimethylcyclohexyl)phenoxy)benzo[d]thiazol-2-amine]: the EC50 is 0.1 to 100 nM. Take `CC1(C)CCC(c2ccc(Nc3ccc4nc(N)sc4c3)cc2)CC1` [Compound 409, N^6-(4-(4,4-dimethylcyclohexyl)phenyl)benzo[d]thiazole-2,6-diamine]: the concentration giving a half-maximal response (EC50) fell in the range of 0.1 to 100 nM. For `Cc1cc(N2CCC(C(F)(F)F)CC2)ccc1Nc1ccc2c(c1)CNC2` [Compound 410, N-(2-methyl-4-(4-(trifluoromethyl)piperidin-1-yl)phenyl) isoindolin-5-amine], the concentration for a half-maximal effect (EC50) lay within 0.1 to 100 nM. The same measure for `CCC(C)(C)c1ccc(Nc2ccc3c(c2)n(C)c(=O)n3C)cc1` [Compound 411, 1,3-dimethyl-5-((4-(tert-pentyl)phenyl)amino)-1,3-dihydro-2H-benzo[d]imidazol-2-one]: 0.1 to 100 nM. For the molecule `NC(=O)CCn1ncc2cc(Nc3ccc(N4CCC(C(F)(F)F)CC4)cc3)ccc21` [Compound 412, 3-(5-((4-(4-(trifluoromethyl)piperidin-1-yl)phenyl)amino)-1H-indazol-1-yl)propanamide], the half-maximal effective concentration (EC50) lay within 0.1 to 100 nM. The same measure for `NC(=O)CCn1cc2cc(Nc3ccc(N4CCC(C(F)(F)F)CC4)cc3)ccc2n1` [Compound 413, 3-(5-((4-(4-(trifluoromethyl)piperidin-1-yl)phenyl)amino)-2H-indazol-2-yl)propanamide]: 0.1 to 100 nM; for `CNCCCn1ncc2cc(Nc3ccc(N4CCC(C(F)(F)F)CC4)cc3)ccc21` [Compound 414, 1-(3-(methylamino)propyl)-N-(4-(4-(trifluoromethyl)piperidin-1-yl)phenyl)-1H-indazol-5-amine]: 0.1 to 100 nM; for `CNCCCn1cc2cc(Nc3ccc(N4CCC(C(F)(F)F)CC4)cc3)ccc2n1` [Compound 415, 2-(3-(methylamino)propyl)-N-(4-(4-(trifluoromethyl)piperidin-1-yl)phenyl)-2H-indazol-5-amine]: 0.1 to 100 nM.

As to `CNCCCn1c(=O)oc2ccc(Nc3ccc(N4CC(C)OC(C)C4)cc3)cc21` (stereo not drawn) [Compound 416], the concentration for a half-maximal effect (EC50) fell in the range of 0.1 to 100 nM. As to `NC(=O)NCCn1c(=O)oc2ccc(Nc3ccc(N4CCC(C(F)(F)F)CC4)cc3)cc21` [Compound 417, 1-(2-(2-oxo-5-((4-(4-(trifluoromethyl)piperidin-1-yl)phenyl)amino)benzo[d]oxazol-3(2H)-yl)ethyl)urea], the EC50 was 0.1 to 100 nM. The value for `CNCCCn1c(=O)oc2ccc(Nc3ccc(N4CCC(C(F)(F)F)CC4)cc3)cc21` [Compound 418, 3-(3-(methylamino)propyl)-5-((4-(4-(trifluoromethyl)piperidin-1-yl)phenyl)amino)benzo[d]oxazol-2(3H)-one] was 0.1 to 100 nM; that for `NC(=O)NCCn1cc2cc(Nc3ccc(N4CCC(C(F)(F)F)CC4)cc3)ccc2n1` [Compound 419, 1-(2-(5-((4-(4-(trifluoromethyl)piperidin-1-yl)phenyl)amino)-2H-indazol-2-yl)ethyl)urea] was 0.1 to 100 nM.

Consider `CC1CN(c2ccc(Nc3ccc4oc(=O)n(C)c4c3)cc2)CC(C)O1` (stereo not drawn) [Compound 420, 5-((4-(2,6-dimethylmorpholino)phenyl)amino)-3-methylbenzo[d]oxazol-2(3H)-one], for which the EC50 was 0.1 to 100 nM. The same measure for `NC(=O)NCCn1ncc2cc(Nc3ccc(N4CCC(C(F)(F)F)CC4)cc3)ccc21` [Compound 421, 1-(2-(5-((4-(4-(trifluoromethyl)piperidin-1-yl)phenyl)amino)-1H-indazol-1-yl)ethyl)urea]: 0.1 to 100 nM; for `CC1CN(c2ccc(Nc3ccc4c(cnn4C)c3)cc2)CC(C)O1` (stereo not drawn) [Compound 422, N-(4-(2,6-dimethylmorpholino)phenyl)-1-methyl-1H-indazol-5-amine]: 0.1 to 100 nM; for `CC1CN(c2ccc(Nc3ccc4nn(C)cc4c3)cc2)CC(C)O1` (stereo not drawn) [Compound 423, N-(4-(2,6-dimethylmorpholino)phenyl)-2-methyl-2H-indazol-5-amine]: 0.1 to 100 nM. For the molecule `CC1CN(c2ccc(Nc3ccc4c(c3)oc(=O)n4CCN(C)C)cc2)CC(C)O1` (stereo not drawn) [Compound 424], the EC50 was in the range of 0.1 to 100 nM. On to `CC1CN(c2ccc(Nc3ccc4c(c3)c(C(N)=O)cn4C)cc2)CC(C)O1` (stereo not drawn) [Compound 425, 5-((4-(2,6-dimethylmorpholino)phenyl)amino)-1-methyl-1H-indole-3-carboxamide], for which the concentration giving a half-maximal response (EC50) fell in the range of 0.1 to 100 nM. In the case of `CC1CN(c2ccc(Nc3ccc4c(c3)n(C)c(=O)n4CCN(C)C)cc2)CC(C)O1` (stereo not drawn) [Compound 426, 1-(2-(dimethylamino)ethyl)-5-((4-(2,6-dimethylmorpholino)phenyl)amino)-3-methyl-1,3-dihydro-2H-benzo[d]imidazol-2-one], the concentration for a half-maximal effect (EC50) fell in the range of 0.1 to 100 nM. With `CNCCn1c(=O)oc2ccc(Nc3ccc(N4CC(C)OC(C)C4)cc3)cc21` (stereo not drawn) [Compound 427, 5-((4-(2,6-dimethylmorpholino)phenyl)amino)-3-(2-(methylamino)ethyl) benzo[d]oxazol-2(3H)-one], the EC50 was in the range of 0.1 to 100 nM.

Turning to `CC1CN(c2ccc(Nc3ccc4c(c3)C(C)(C)C(=O)N4C)cc2)CC(C)O1` (stereo not drawn) [Compound 428, 5-((4-(2,6-dimethylmorpholino)phenyl)amino)-1,3,3-trimethylindolin-2-one], the half-maximal effective concentration (EC50) was in the range of 0.1 to 100 nM. The same measure for `CN(C)CCn1c(=O)oc2ccc(Nc3ccc(N4CCC(C(F)(F)F)CC4)cc3)cc21` [Compound 429, 3-(2-(dimethylamino)ethyl)-5-((4-(4-(trifluoromethyl)piperidin-1-yl)phenyl)amino)benzo[d]oxazol-2(3H)-one]: 0.1 to 100 nM; for `CC1CN(c2ccc(Nc3ccc4c(c3)CN(C)C4)cc2)CC(C)O1` (stereo not drawn) [Compound 430, N-(4-(2,6-dimethylmorpholino)phenyl)-2-methylisoindolin-5-amine]: 0.1 to 100 nM; for `CC1CN(c2ccc(Nc3ccc4c(c3)CNC4)cc2)CC(C)O1` (stereo not drawn) [Compound 431, N-(4-(2,6-dimethylmorpholino)phenyl)isoindolin-5-amine]: 0.1 to 100 nM. With `CC1CN(c2ccc(Nc3ccc4c(=O)n(C)[nH]c4c3)cc2)CC(C)O1` (stereo not drawn) [Compound 432, 6-((4-(2,6-dimethylmorpholino)phenyl)amino)-2-methyl-1H-indazol-3(2H)-one], the EC50 was 0.1 to 100 nM. As for `O=c1[nH]c2cc(Nc3ccc(N4CCC(C(F)(F)F)CC4)cc3)ccc2o1` [Compound 433, 5-((4-(4-(trifluoromethyl)piperidin-1-yl)phenyl)amino) benzo[d]oxazol-2(3H)-one], the EC50 is 0.1 to 100 nM. With `CC1CN(c2ccc(Nc3ccc4c(c3)ncn4C)cc2)CC(C)O1` (stereo not drawn) [Compound 434, N-(4-(2,6-dimethylmorpholino)phenyl)-1-methyl-1H-benzo[d]imidazol-5-amine], the EC50 is 0.1 to 100 nM.

`CC1CN(c2ccc(Nc3ccc4c(c3)nc(N)n4C)cc2)CC(C)O1` (stereo not drawn) [Compound 435]: the concentration for a half-maximal effect (EC50) was in the range of 0.1 to 100 nM.

With `CNCCn1c(=O)n(C)c2cc(Nc3ccc(N4CC(C)OC(C)C4)cc3)ccc21` (stereo not drawn) [Compound 436, 5-((4-(2,6-dimethylmorpholino)phenyl)amino)-3-methyl-1-(2-(methylamino)ethyl)-1H-benzo[d]imidazol-2(3H)-one], the EC50 fell in the range of 0.1 to 100 nM.

With `Cc1cc(N2CC(C)OC(C)C2)ccc1Nc1ccc2c(cnn2C)c1` (stereo not drawn) [Compound 437, N-(4-(2,6-dimethylmorpholino)-2-methylphenyl)-1-methyl-1H-indazol-5-amine], the EC50 lay in the range of 0.1 to 100 nM. On to `Cc1cc(N2CC(C)OC(C)C2)ccc1Nc1ccc2c(c1)C(C)(C)C(=O)N2C` (stereo not drawn) [Compound 438, 5-((4-(2,6-dimethylmorpholino)-2-methylphenyl)amino)-1,3,3-trimethylindolin-2-one], for which the EC50 is 0.1 to 100 nM.

On to `Cc1cc(N2CC(C)OC(C)C2)ccc1Nc1ccc2c(c1)CN(C)C2` (stereo not drawn) [Compound 439, N-(4-(2,6-dimethylmorpholino)-2-methylphenyl)-2-methylisoindolin-5-amine], for which the EC50 is 0.1 to 100 nM.
